Results from article doi:10.1101/2024.12.09.627564, “Cannabinoid inhibition of mechanosensitive K^+ channels” (bioRxiv, 2024).

Assays:
[1] = molecular target: T1, Homo sapiens TREK-1 (Homo sapiens, UniProt O95069); test: Excised inside-out patch recording of TREK-1 from Xenopus oocytes; type: biochemical
T1 construct: TREK-1 amino acids 1–426; expressed in transfected cells; host or cells: Xenopus laevis oocytes, cRNA injection
T1 sequence (O95069 1-426): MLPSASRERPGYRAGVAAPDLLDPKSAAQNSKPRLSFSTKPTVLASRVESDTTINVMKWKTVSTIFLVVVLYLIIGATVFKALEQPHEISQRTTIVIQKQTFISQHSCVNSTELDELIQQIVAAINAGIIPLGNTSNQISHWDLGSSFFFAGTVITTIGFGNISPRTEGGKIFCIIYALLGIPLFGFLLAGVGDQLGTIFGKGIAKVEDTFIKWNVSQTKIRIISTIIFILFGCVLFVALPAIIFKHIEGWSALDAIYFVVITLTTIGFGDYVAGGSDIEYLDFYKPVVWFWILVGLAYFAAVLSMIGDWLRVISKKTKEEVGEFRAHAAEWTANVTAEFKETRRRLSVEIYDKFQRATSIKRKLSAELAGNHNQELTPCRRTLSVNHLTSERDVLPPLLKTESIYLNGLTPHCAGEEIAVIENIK
Text: For patch clamp recording from Xenopus oocytes, genes encoding full-length Homo sapiens TRAAK (UniProt Q9NYG8–2), TREK-1 (UniProt O95069), and TREK-2 (UniProt P57789) were codon optimized for eukaryotic expression, synthesized (Genewiz), and cloned into a modified pGEMHE vector using Xho1 and EcoR1 restriction sites. The transcribed messages encode H. sapiens TRAAK amino acids 1–393, TREK-1 amino acids 1–426, or TREK-2 amino acids 1–538 with an additional three amino acids (SNS) at the C terminus. TRAAK mutants were introduced by polymerase chain reaction (PCR). Linearized DNA was transcribed in vitro using T7 polymerase. Complementary RNA (0.1 to 10 ng for TRAAK, TREK-1, TREK-2, and mutants) in 50 nL H2O was injected into Xenopus laevis oocytes extracted from anesthetized frogs. Currents were recorded at 25 °C from inside-out patches excised from oocytes 1 to 5 d after RNA injection. […]
Patches were evaluated with voltage-step protocols to confirm TRAAK expression and minimal non-specific leak based on reversal potential. Currents were recorded using an Axopatch 200B amplifier (Molecular Devices) at a bandwidth of 1 kHz and digitized with an Digidata 1550B (Molecular Devices) at 100–500 kHz using pClamp10.7 software. […] In an effort to minimize variability associated with differences in resting membrane tension, we targeted patches with low basal curvature and low resting channel activity and ensured measured pressure difference across the patch was as close to zero as possible at rest to prevent mechanical activation of channels. Data were analyzed using Clampfit 10.7, Excel, and Graphpad Prism software. […]
(§1) To avoid cannabinoid absorption to plastic, cannabinoid solutions were made in glass vials and diluted by weight, perfusion was performed using glass tubing pulled from borosilicate glass Pasteur pipettes (Fisherbrand, Cat# 13–678-20C), and recordings were performed in glass chambers. Channel activity was continuously recorded during perfusion steps. […]

[2] = molecular target: T2, TRAAKG158D (Homo sapiens, UniProt Q9NYG8, G132D); test: Excised patch recording of TRAAK mutant G158D; type: biochemical
T2 construct: The transcribed messages encode H. sapiens TRAAK amino acids 1–393; expressed in transfected cells; host or cells: Xenopus laevis oocytes, cRNA injection
T2 sequence (Q9NYG8 1-393 G132D): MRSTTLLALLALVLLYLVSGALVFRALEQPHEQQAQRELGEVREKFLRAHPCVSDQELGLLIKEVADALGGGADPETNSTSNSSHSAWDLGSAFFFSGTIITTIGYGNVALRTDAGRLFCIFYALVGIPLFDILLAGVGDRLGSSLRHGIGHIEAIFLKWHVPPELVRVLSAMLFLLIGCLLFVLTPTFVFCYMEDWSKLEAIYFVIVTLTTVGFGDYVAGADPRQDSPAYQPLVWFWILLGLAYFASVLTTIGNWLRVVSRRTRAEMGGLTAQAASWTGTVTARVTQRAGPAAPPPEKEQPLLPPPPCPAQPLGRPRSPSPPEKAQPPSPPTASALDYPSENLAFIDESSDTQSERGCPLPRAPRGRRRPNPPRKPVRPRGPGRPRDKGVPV
Text: For patch clamp recording from Xenopus oocytes, genes encoding full-length Homo sapiens TRAAK (UniProt Q9NYG8–2), TREK-1 (UniProt O95069), and TREK-2 (UniProt P57789) were codon optimized for eukaryotic expression, synthesized (Genewiz), and cloned into a modified pGEMHE vector using Xho1 and EcoR1 restriction sites. The transcribed messages encode H. sapiens TRAAK amino acids 1–393, TREK-1 amino acids 1–426, or TREK-2 amino acids 1–538 with an additional three amino acids (SNS) at the C terminus. TRAAK mutants were introduced by polymerase chain reaction (PCR). Linearized DNA was transcribed in vitro using T7 polymerase. Complementary RNA (0.1 to 10 ng for TRAAK, TREK-1, TREK-2, and mutants) in 50 nL H2O was injected into Xenopus laevis oocytes extracted from anesthetized frogs. Currents were recorded at 25 °C from inside-out patches excised from oocytes 1 to 5 d after RNA injection. The pipette solution contained 15 mM KCl, 135 mM NaCl, 2 mM MgCl2, and 10 mM HEPES (pH = 7.4 with KOH) and the bath solution contained 150 mM KCl and 10 mM HEPES (pH = 7.1 with KOH). Borosilicate glass pipettes were pulled to 2–5 MΩ resistance.
Patches were evaluated with voltage-step protocols to confirm TRAAK expression and minimal non-specific leak based on reversal potential. Currents were recorded using an Axopatch 200B amplifier (Molecular Devices) at a bandwidth of 1 kHz and digitized with an Digidata 1550B (Molecular Devices) at 100–500 kHz using pClamp10.7 software. Pressure was applied with a second-generation high-speed pressure clamp device (HSPC-2-SB, ALA Scientific Instruments). Aggregated data were from patches from n ≥ 2 different cells on different days. No relevant differences were observed between patches from different cells. In an effort to minimize variability associated with differences in resting membrane tension, we targeted patches with low basal curvature and low resting channel activity and ensured measured pressure difference across the patch was as close to zero as possible at rest to prevent mechanical activation of channels. Data were analyzed using Clampfit 10.7, Excel, and Graphpad Prism software. For voltage families, the data were decimated 100x and plotted in Prism. […]
as §1
The effects of cannabinoids on channel activity were quantified by the reduction in channel current evoked at 0 mV during a gap-free recording or during 200 ms long voltage families with steps ranging from −100 to +100 mV. […]

[3] = tested on: voltage-gated sodium channels; details: cited from earlier work
[4] = tested on: TRPA1; design: method as in PMID 30697147, PMID 31566564; details: activation; cited from earlier work
[5] = as measured in plasma or estimated in brain tissue; cited from earlier work

With `C=C(C)[C@@H]1CCC(C)=C[C@H]1c1c(O)cc(CCCCC)cc1O` [CBD, Cannabidiol] the IC50 [1] was 1.5 µM, the Hill-coefficient ([1]; TREK-1 dose-response) was 1.5 and the “fold less sensitive than TRAAK” value ([1]; TREK-1 vs TRAAK) was ~ 10 fold. For the same molecule, the EC50 [2] was 1.03 ± 0.22 µM, the IC50 [2] was 1.03 ± 0.22 µM and the “fold less sensitive than wild-type TRAAK” value ([2]; G158D vs wild-type) was ~ 7.1 fold. For the same molecule, the inhibition at 10 µM ([2]; highest CBD concentration tested, 10 μM, read-out: inhibition plateauing at % of initial current) was roughly 45%, the IC50 [3] was 2 to 10 µM and the EC50 [4] was 0.11 µM. The “concentration in treated patients” value [5] was 50 to 100 nM.
